# Source: ChEMBL document CHEMBL1136155, “Search compounds with antimicrobial activity by applying molecular topology to selected quinolones” (Bioorg Med Chem Lett, 2003)
# Calls of active or inactive are those of the source. The rule behind the calls is not given here.
# Assays:
# Pseudomonas aeruginosa = test: Antimicrobial activity against Pseudomonas aeruginosa 108;IA is Inactive; format: functional, organism-based
# Staphylococcus aureus [1] = test: Antimicrobial activity against Staphylococcus aureus;IA is Inactive; format: functional, organism-based
# Proteus mirabilis [2] = test: The compound has antimicrobial activity against Proteus mirabilis; Active; format: functional, organism-based
# Escherichia coli = test: Antimicrobial activity against Escherichia coli;IA is Inactive; format: functional, organism-based
# Enterococcus faecalis [3] = test: Antimicrobial activity against Enterococcus faecalis;IA is Inactive; format: functional, organism-based
# Klebsiella aerogenes = test: Activity against Enterobacter aerogenes; format: functional
# Staphylococcus aureus [4] = test: The compound has antimicrobial activity against Staphylococcus aureus; Active; format: functional, organism-based
# in vivo = conditions: eutheria
# Enterococcus faecalis [5] = test: The compound has antimicrobial activity against Enterococcus faecalis; Active; format: functional, organism-based
# Proteus mirabilis [6] = test: Antimicrobial activity against Proteus mirabilis;IA is Inactive; format: functional, organism-based
Compound,CMI (Klebsiella aerogenes) [mg/L],bioavailability (in vivo) [%],also measured
CC1=CC(=C(c2cc(C)c(O)c(CN(CC(=O)O)CC(=O)O)c2)c2ccccc2S(=O)(=O)O)C=C(CN(CC(=O)O)CC(=O)O)C1=O,,,Activity (Pseudomonas aeruginosa): inactive; Activity (Staphylococcus aureus [1]): inactive; Activity (Proteus mirabilis [2]): Active; Activity (Escherichia coli): inactive; Activity (Enterococcus faecalis [3]): inactive
O=C(O)c1cn(C2CC2)c2cc(N3CCNCC3)c(F)cc2c1=O [CIPROFLOXACIN],0.03,,
CCn1cc(C(=O)O)c(=O)c2ccc(C)nc21 [NALIDIXIC ACID],3,60,Activity (Pseudomonas aeruginosa): inactive; Activity (Staphylococcus aureus [4]): Active; Activity (Proteus mirabilis [2]): Active; Activity (Escherichia coli): inactive; Activity (Enterococcus faecalis [5]): Active
CCn1cc(C(=O)O)c(=O)c2cc(F)c(N3CCN(C)CC3)cc21 [PEFLOXACIN],0.12,91.2,
CC1CN(c2cc3c(cc2F)c(=O)c(C(=O)O)cn3-c2ccc(F)cc2F)CCN1 (stereo not given) [TEMAFLOXACIN],0.16,90,
NC1CCN(c2nc3c(cc2F)c(=O)c(C(=O)O)cn3-c2ccccc2F)C1 (stereo not given) [TUSOFLOXACINE],0.05,,
OCC(O)C(OC1CO1)OC1CO1 (stereo not given),,,Activity (Pseudomonas aeruginosa): inactive; Activity (Staphylococcus aureus [1]): inactive; Activity (Escherichia coli): inactive; Activity (Enterococcus faecalis [3]): inactive; Activity (Proteus mirabilis [6]): inactive
CCn1cc(C(=O)O)c(=O)c2cc(F)c(N3CCNCC3)cc21 [NORFLOXACIN],0.1,63,
CC1COc2c(N3CCN(C)CC3)c(F)cc3c(=O)c(C(=O)O)cn1c23 (stereo not given) [OFLOXACIN],0.12,94.4,
CCn1cc(C(=O)O)c(=O)c2cnc(N3CCNCC3)nc21 [PIPEMIDIC ACID],2,,
CCn1cc(C(=O)O)c(=O)c2cc(F)c(N3CCNCC3)nc21 [ENOXACIN],0.16,87.4,
CN1CCN(c2cc3c(cc2F)c(=O)c(C(=O)O)cn3-c2ccc(F)cc2)CC1 [DIFLOXACIN],0.19,,
CCn1cc(C(=O)O)c(=O)c2cc3c(cc21)OCO3 [OXOLINIC ACID],0.5,,
CNn1cc(C(=O)O)c(=O)c2cc(F)c(N3CCN(C)CC3)cc21 [AMIFLOXACIN],0.11,,
CCn1cc(C(=O)O)c(=O)c2cc(F)c(N3CCNC(C)C3)c(F)c21 (stereo not given) [LOMEFLOXACIN],0.16,98,
Nc1ccc(C(=O)Nc2ccc3c(O)c(/N=N/c4ccc(C(=O)Nc5ccc(/N=N/c6ccc7cc(S(=O)(=O)O)cc(S(=O)(=O)O)c7c6)c(O)c5)cc4)c(S(=O)(=O)O)cc3c2)cc1,,,Activity (Pseudomonas aeruginosa): inactive; Activity (Staphylococcus aureus [1]): inactive; Activity (Escherichia coli): inactive; Activity (Enterococcus faecalis [3]): inactive; Activity (Proteus mirabilis [6]): inactive
